One test addresses T1, Rhesus PDE2A3 (Macaca mulatta, UniProt B3VTJ2).
T1 construct: made in house; host or cells: AD293 cells, transiently transfected with pcDNA3.3-TOPO; lysate supernatant used
T1 sequence (B3VTJ2 1-941): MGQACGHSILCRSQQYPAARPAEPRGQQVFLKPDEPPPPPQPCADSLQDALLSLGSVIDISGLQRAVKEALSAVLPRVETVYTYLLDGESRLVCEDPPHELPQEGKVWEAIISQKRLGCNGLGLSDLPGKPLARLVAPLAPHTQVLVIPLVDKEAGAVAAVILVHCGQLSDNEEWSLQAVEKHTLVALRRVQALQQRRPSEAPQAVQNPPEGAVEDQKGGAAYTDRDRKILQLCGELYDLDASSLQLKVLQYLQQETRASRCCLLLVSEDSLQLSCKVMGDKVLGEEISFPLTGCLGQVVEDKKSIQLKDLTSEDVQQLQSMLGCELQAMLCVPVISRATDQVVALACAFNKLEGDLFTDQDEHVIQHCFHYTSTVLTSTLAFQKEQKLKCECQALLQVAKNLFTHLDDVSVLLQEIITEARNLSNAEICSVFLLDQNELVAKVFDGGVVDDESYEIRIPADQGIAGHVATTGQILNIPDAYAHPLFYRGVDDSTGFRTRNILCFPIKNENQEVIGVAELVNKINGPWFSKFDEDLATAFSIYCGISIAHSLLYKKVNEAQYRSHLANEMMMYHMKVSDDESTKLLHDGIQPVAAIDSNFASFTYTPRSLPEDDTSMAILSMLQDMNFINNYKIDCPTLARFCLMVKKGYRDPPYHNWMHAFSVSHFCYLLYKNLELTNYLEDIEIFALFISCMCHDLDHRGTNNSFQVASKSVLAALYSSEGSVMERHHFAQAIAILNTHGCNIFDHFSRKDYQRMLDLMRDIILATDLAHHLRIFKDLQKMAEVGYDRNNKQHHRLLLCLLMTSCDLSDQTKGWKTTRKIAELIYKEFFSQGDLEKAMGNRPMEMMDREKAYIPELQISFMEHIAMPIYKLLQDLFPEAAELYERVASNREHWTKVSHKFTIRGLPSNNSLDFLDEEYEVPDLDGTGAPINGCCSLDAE
In words: PDE2 fluorescence polarization (IMAP FP) inhibition assay, rhesus PDE2A3. In kind it is biochemical, rhesus macaque. Here is the method:
The activity of the compounds in accordance with the present invention as PDE2 inhibitors may be readily determined using a fluorescence polarization (FP) methodology (Huang, W., et al., J. Biomol Screen, 2002, 7: 215).
In a typical experiment the PDE2 inhibitory activity of the compounds of the present invention was determined in accordance with the following experimental method. Rhesus PDE2A3 was amplified from rhesus macaque brain cDNA (Biochain Institute, Hayward, Calif.) using primers based on human PDE2A sequence (accession NM_002599.3) where the forward primer containing a Kozak consensus was 5′-[…]-3′ and the reverse primer was 5′-[…]-3′. Amplification with Easy-A High-Fidelity PCR cloning enzyme (Stratagene, La Jolla, Calif.) was 95° C. for 2 minutes followed by thirty three cycles of 95° C. for 40 seconds, 52° C. for 30 seconds, and 72° C. for 2 minutes 48 seconds. Final extension was 72° C. for 7 minutes. The PCR product was TA cloned into pcDNA3.3-TOPO (Invitrogen, Carlsbad, Calif.) aaccording to standard protocol. A consensus sequence was developed from multiple clones and then deposited into GenBank (EU812167). AD293 cells (Stratagene, La Jolla, Calif.) with 70-80% confluency were transiently transfected with rhesus PDE2A3/pcDNA3.3-TOPO using Lipofectamine 2000 according to manufacturer specifications (Invitrogen, Carlsbad, Calif.). Cells were harvested 48 hours post-transfection and lysed by sonication (setting 3, 10×5 sec pulses) in a buffer containing 20 mM HEPES pH 7.4, 1 mM EDTA and Complete Protease Inhibitor Cocktail Tablets (Roche, Indianapolis, Ind.). Lysate was collected by centrifugation at 75,000×g for 20 minutes at 4° C. and supernatant utilized for evaluation of PDE2 activity. The fluorescence polarization assay for cyclic nucleotide phosphodiesterases was performed using an IMAP® FP kit supplied by Molecular Devices, Sunnyvale, Calif. (product # R8139). […] Assays were performed at room temperature in 384-well microtiter plates with an incubation volume of 20.2 μL. Solutions of test compounds were prepared in DMSO and serially diluted with DMSO to yield 8 μL of each of 10 solutions differing by 3-fold in concentration, at 32 serial dilutions per plate. […] 0% of inhibition is determined by using DMSO (1% final concentrations).
A Labcyte Echo 555 (Labcyte, Sunnyvale, Calif.) is used to dispense 200 nL from each well of the titration plate to the 384 well assay plate. Ten microliters of a solution of enzyme (1/2000 final dilution from aliquots; sufficient to produce 20% substrate conversion) was added to the assay plate. Next 10 uL of a separate solution of the substrate FAM-labeled cAMP (50 nM final concentration product # R7506 from Molecular Devices) and the activator cGMP (1 uM final concentration), prepared in the assay buffer (10 mM Tris HCl, pH 7.2, 10 mM MgCl2, 0.05% NaN3 0.01% Tween-20, and 1 mM DTT) was added to the assay plate and shaken to mix. The reaction is allowed to proceed at room temperature for 60 minutes. A binding solution is then made from the kit components, comprised of 80% Solution A, 20% Solution B and binding reagent at a volume of 1/600 the total binding solution. The enzymatic reaction is stopped by addition of 60 μL of the binding solution to each well of the assay plates and the plates are sealed and shaken for 30 seconds. The plate was incubated at room temperature for at least one hour prior to determining the fluorescence polarization (FP). The parallel and perpendicular fluorescence of each well of the plate was measured using a Tecan Genios Pro plate reader (Tecan, Switzerland) or Perkin Elmer EnVision™ plate reader (Waltham, Mass.). Fluorescence polarization (mP) was calculated from the parallel (S) and perpendicular (P) fluorescence of each sample well and the analogous values for the median control well, containing only substrate (So and Po), using the following equation: Polarization (mP)=1000*(S/So−P/Po)/(S/So+P/Po).

The next test has as its target T2, human PDE2A1 (Homo sapiens, UniProt O00408).
T2 construct: GST; purchased BPS Bioscience (San Diego, Calif.) 60020; host or cells: insect cells
Kind of test: IMAP FP PDE selectivity panel, human PDE2A1. Type of test: biochemical. The procedure, abridged: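 Human PDE2A1 tested alongside PDE1–11 by IMAP fluorescence polarization at room temperature. Substrate was 50 nM FAM-cAMP plus 1000 nM cGMP, buffer pH 7.2 with MgCl2 and DTT, enzyme set for 20% conversion. Ten 3-fold compound dilutions; 60 min reaction, then IMAP binding solution, 1 h, parallel/perpendicular fluorescence read.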

[1] abbreviates: Lab B, read-out: Rhesus PDE2 Ki (nM) Lab B.
Setting [2] is: Lab B, read-out: Human PDE2 Ki (nM) Lab B.
Where [3] appears, read: Lab A, read-out: Rhesus PDE2 Ki (nM) Lab A.

The values below come from US10357481B2 (MERCK SHARP & DOHME CORP., priority 2015, dated 2019).

Where two headings read alike, the source gives them in different places.

T2 sequence (O00408 1-920 isoform O00408-2): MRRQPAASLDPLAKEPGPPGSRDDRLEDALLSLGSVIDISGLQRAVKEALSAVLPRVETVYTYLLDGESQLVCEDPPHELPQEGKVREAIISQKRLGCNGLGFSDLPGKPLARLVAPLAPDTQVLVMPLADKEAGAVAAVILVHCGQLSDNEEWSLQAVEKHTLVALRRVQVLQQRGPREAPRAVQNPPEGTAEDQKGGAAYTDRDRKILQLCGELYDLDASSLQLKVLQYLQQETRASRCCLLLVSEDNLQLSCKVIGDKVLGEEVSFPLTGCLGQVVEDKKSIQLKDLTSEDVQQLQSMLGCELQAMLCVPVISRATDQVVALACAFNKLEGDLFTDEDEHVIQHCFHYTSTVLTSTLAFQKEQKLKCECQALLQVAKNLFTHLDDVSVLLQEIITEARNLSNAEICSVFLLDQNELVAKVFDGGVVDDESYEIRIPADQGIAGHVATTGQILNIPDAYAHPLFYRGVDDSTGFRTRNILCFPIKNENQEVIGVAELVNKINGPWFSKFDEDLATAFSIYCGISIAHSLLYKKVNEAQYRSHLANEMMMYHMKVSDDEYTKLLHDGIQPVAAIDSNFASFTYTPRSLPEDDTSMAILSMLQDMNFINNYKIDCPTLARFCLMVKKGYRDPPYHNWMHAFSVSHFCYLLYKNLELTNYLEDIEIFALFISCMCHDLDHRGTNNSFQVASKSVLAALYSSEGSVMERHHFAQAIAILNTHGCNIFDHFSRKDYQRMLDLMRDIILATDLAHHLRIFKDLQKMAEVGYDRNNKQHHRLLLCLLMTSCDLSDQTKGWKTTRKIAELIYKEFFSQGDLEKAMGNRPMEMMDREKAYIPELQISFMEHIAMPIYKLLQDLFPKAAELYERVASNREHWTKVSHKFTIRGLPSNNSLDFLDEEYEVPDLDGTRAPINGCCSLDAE

In the case of `Cc1cc(N[C@@H](c2ccc(C(F)(F)F)c(F)c2)C(C)(C)O)n2ncnc2n1` [Example 98, (1S)-1-[3-Fluoro-4-(trifluoromethyl)phenyl]-2-methyl-1-[(5-methyl [1,2,4]triazolo[1,5-a]pyrimidin-7-yl)amino]propan-2-ol], the Ki on Rhesus PDE2A3 (setting [1]) was 12 nM; at human PDE2A1 (Human PDE2 Ki (nM) Lab B), 10 nM.
Turning to `CCc1cc(NC2(c3ccc(C(F)(F)F)c(F)c3)CC2)n2ncnc2n1` [Example 68, 5-Ethyl-N-{1-[3-fluoro-4-(trifluoromethyl)phenyl]cyclopropyl}[1,2,4]triazolo[1,5-a]pyrimidin-7-amine], the inhibitory constant (Ki) on Rhesus PDE2A3 was 29 nM; at human PDE2A1 (setting [2]) it was 35 nM.
`Cc1cc(NC(c2ccc(S(F)(F)(F)(F)F)cc2)C(C)(C)O)n2ncnc2n1` (single isomer, unassigned) [Example 117, (1R or S)-2-Methyl-1-[(5-methyl[1,2,4]triazolo[1,5-a]pyrimidin-7-yl)amino]-1-[4-(pentafluoro-λ^6-sulfanyl)phenyl] propan-2-ol]: the inhibitory constant (Ki) was determined as 5.6 nM on Rhesus PDE2A3 (setting [1]) and 4.6 nM at human PDE2A1 (Human PDE2 Ki (nM) Lab B).
With `CC(Nc1ccnc2ncnn12)c1ccc(OC(F)(F)F)cc1` (stereo not drawn) [Example 84, N-{1-[4-(Trifluoromethoxy)phenyl]ethyl}[1,2,4]triazolo[1,5-a]pyrimidin-7-amine], the inhibition constant (Ki) on Rhesus PDE2A3 (setting [3]) is 2770 nM.
Turning to `CC(Nc1ccnc2ncnn12)c1ccc(C(F)(F)F)cc1` (stereo not drawn) [Example 83, N-{1-[4-(Trifluoromethyl)phenyl]ethyl}[1,2,4]triazolo[1,5-a]pyrimidin-7-amine], the Ki on Rhesus PDE2A3 (setting [3]) amounted to 4680 nM.
As for `CCC(O)(CC)C(Nc1cc(C)nc2ncnn12)c1ccc(C(F)(F)F)c(F)c1` (single isomer, unassigned) [Example 215, (R)- or (S)-3-((3-Fluoro-4-(trifluoromethyl)phenyl)(5-methyl-[1,2,4]triazolo [1,5-a]pyrimidin-7-ylamino)methyl) pentan-3-ol], the inhibition constant Ki on human PDE2A1 (setting [2]) was over 2960 nM.
Consider `Cc1cc(N[C@@H](c2ccc(SC(F)(F)F)c(F)c2)C2CC2)n2ncnc2n1` [Example 41, N-[(R)-Cyclopropyl{3-fluoro-4-[(trifluoromethyl)sulfanyl]phenyl}methyl]-5-methyl[1,2,4]triazolo[1,5-a] pyrimidin-7-amine], for which the Ki on human PDE2A1 (setting [2]) came to 19 nM.
On to `Cc1cc(N[C@@H](c2ccc(C(F)(F)F)c(F)c2)C(C)(C)C)n2nc(CCO)nc2n1` [Example 250, (R)-2-(7-(1-(3-Fluoro-4-(trifluoromethyl)phenyl)-2,2-dimethylpropylamino)-5-methyl-[1.2.4]triazolo[1,5-a]pyrimidin-2-yl)ethanol], for which the Ki on human PDE2A1 (setting [2]) was 57 nM.
Same read-out and setting: as for `Cc1cc(N[C@H](C)c2ccc(SC(F)(F)F)cc2)n2ncnc2n1` [Example 10, 5-Methyl-N-[(1R)-1-{4-[(trifluoromethyl)sulfanyl]phenyl}ethyl][1,2,4]triazolo[1,5-a]pyrimidin-7-amine], the figure is 21 nM.
Same read-out and setting: as for `Cc1cc(N[C@H](C)c2ccc(C(F)(F)F)c(F)c2)n2ncnc2n1` [Example 3, N-{(1R)-1-[3-Fluoro-4-(trifluoromethyl)phenyl]ethyl}-5-methyl[1,2,4]triazolo[1,5-a] pyrimidin-7-amine], the figure is 115 nM; as for `CC(C)(C)c1ccc(C(Nc2cc(C(F)(F)F)nc3ncnn23)C(C)(C)O)cc1` (single isomer, unassigned) [Example 161, (1S or S)-1-(4-tert-Butylphenyl)-2-methyl-1-{[5-(trifluoromethyl) [1,2,4]triazolo [1,5-a]pyrimidin-7-yl]amino} propan-2-ol], 19 nM.
`Cc1cc(N[C@@H](c2ccc(C(F)(F)F)c(F)c2)C(C)(C)C)n2ncnc2c1` [Example 264, (R)—N-{1-[3-Fluoro-4-(trifluoromethyl)phenyl]-2,2-dimethylpropyl}-7-methyl-[1,2,4]triazolo[1,5-a]pyridin-5-amine]: the Ki on human PDE2A1 (setting [2]) was determined as 292 nM.
On the same count and under the same terms, as for `C[C@@H](Nc1cnnc2ncnn12)c1ccc(S(F)(F)(F)(F)F)cc1` [Example 259, (R)—N-{1-[4-(Pentafluoro-λ^6-sulfanyl)phenyl]ethyl}-[1,2,4]triazolo[5,1-a][1,2,4]trizain-4-amine], the figure is 1430 nM.
On the same count and under the same terms, as for `CC(C)(C)[C@@H](Nc1cc(CO)nc2ncnn12)c1ccc(C(F)(F)F)c(F)c1` [Example 79, [7-({(1R)-1-[3-Fluoro-4-(trifluoromethyl)phenyl]-2,2-dimethylpropyl}amino)[1,2,4]triazolo[1,5-a]pyrimidin-5-yl]methanol], the figure is 208 nM; as for `CC(C)(O)[C@@H](Nc1cc(C(F)(F)F)cc2nc(N)nn12)c1ccc(C(F)(F)F)cc1` [Example 294, (S)-1-((2-Amino-7-(trifluoromethyl)-[1,2,4]triazolo[1,5-a]pyridin-5-yl)amino)-2-methyl-1-(4-(trifluoromethyl)phenyl)propan-2-ol], 678 nM; as for `Cc1cc(NC(c2ccc(C(F)(F)F)c(F)c2)C(C)(C)N)n2ncnc2n1` (stereo not drawn) [Example 252, 1-(3-Fluoro-4-(trifluoromethyl)phenyl)-2-methyl-N-(5-methyl-[1,2,4]triazolo[1,5-a]pyrimidin-7-yl)propane-1,2-diamine], 60 nM.
Turning to `CC(C)(O)C(Nc1cc(C(F)F)nc2ncnn12)c1ccc(OC(F)F)cc1F` (single isomer, unassigned) [Example 182], on human PDE2A1 (setting [2]), the Ki was over 2960 nM.
For the compound `Cc1cc(O[C@H](c2ccc(C(F)(F)F)cc2)C(C)(C)C)n2ncnc2n1` (single isomer, unassigned) [Example 261], the inhibitory constant (Ki) at human PDE2A1 (setting [2]) was over 2960 nM.
